Like-named read-outs stand apart in the source and are kept apart here.
Key:
Format in all cases: cell-based, human
[1] = test system: BT-459; test: NCI 60 cell line screen, sulforhodamine B, 48 h
Experimental: (§1) A detailed description of the screening procedure can be found at hypertext transfer protocol (http://) “dtp.nci.nih.gov/branches/btb/ivclsp.html.”
(§2) In brief, each of the 60 human tumor cell lines were grown in RPMI 1640 medium, supplemented with 5% fetal bovine serum and 2 mM L-glutamine. Cells were plated at their appropriate density in 96-well microtiter plates and incubated at 37° C., 5% CO2, 95% air and 100% relative humidity. […] Cells were incubated for an additional 48 hours and a sulforhodamine B protein assay was used to estimate cell viability or growth.

[2] = test system: UACC-62; test: NCI 60 cell line screen, sulforhodamine B, 48 h
Experimental: as §1, §2

[3] = test system: CAK1-1; test: NCI 60 cell line screen, sulforhodamine B, 48 h; conditions: CAK1-1, Renal Cancer
Experimental: as §1, §2

[4] = test system: T86-0; test: NCI 60 cell line screen, sulforhodamine B, 48 h
Experimental: as §1, §2

[5] = test system: HCC-2998; test: NCI 60 cell line screen, sulforhodamine B, 48 h
Experimental: as §1, §2

[6] = test system: NCI-H322M; test: NCI 60 cell line screen, sulforhodamine B, 48 h; conditions: Non-Small Cell Lung Cancer
Experimental: as §1, §2

[7] = test system: MDA-MB-435; test: NCI 60 cell line screen, sulforhodamine B, 48 h; conditions: for CC50: Homo sapiens
Experimental: as §1, §2

[8] = test system: OVCAR-5; test: NCI 60 cell line screen, sulforhodamine B, 48 h; conditions: OVCAR-5, Ovarian Cancer
Experimental: as §1, §2

[9] = test system: MOLT-4; test: NCI 60 cell line screen, sulforhodamine B, 48 h
Experimental: as §1, §2

[10] = test system: NCI-H522; test: NCI 60 cell line screen, sulforhodamine B, 48 h; conditions: NCI-H522, Non-Small Cell Lung Cancer
Experimental: as §1, §2

[11] = test system: KM12; test: NCI 60 cell line screen, sulforhodamine B, 48 h; conditions: KM12, Colon Cancer
Experimental: as §1, §2

[12] = test system: HT29; test: NCI 60 cell line screen, sulforhodamine B, 48 h
Experimental: as §1, §2

[13] = test system: TK-10; test: NCI 60 cell line screen, sulforhodamine B, 48 h; conditions: TK-10, Renal Cancer
Experimental: as §1, §2

[14] = test system: A549/ATCC; test: NCI 60 cell line screen, sulforhodamine B, 48 h; conditions: Non-Small Cell Lung Cancer
Experimental: as §1, §2

[15] = test system: MDA-N; test: NCI 60 cell line screen, sulforhodamine B, 48 h; conditions: Breast Cancer
Experimental: as §1, §2

[16] = test system: MDA-MB-231/ATCC; test: NCI 60 cell line screen, sulforhodamine B, 48 h; conditions: Breast Cancer
Experimental: as §1, §2

[17] = test system: SNB-75; test: NCI 60 cell line screen, sulforhodamine B, 48 h; conditions: SNB-75, CNS Cancer
Experimental: as §1, §2

[18] = test system: SF-268; test: NCI 60 cell line screen, sulforhodamine B, 48 h; conditions: SF-268, CNS Cancer
Experimental: as §1, §2

[19] = test system: T-47D; test: NCI 60 cell line screen, sulforhodamine B, 48 h
Experimental: as §1, §2

[20] = test system: MALME-3M; test: NCI 60 cell line screen, sulforhodamine B, 48 h; conditions: Melanoma
Experimental: as §1, §2

[21] = test system: CCRF-CEM; test: NCI 60 cell line screen, sulforhodamine B, 48 h; conditions: Leukemia
Experimental: as §1, §2

[22] = test system: LOX IMVI; test: NCI 60 cell line screen, sulforhodamine B, 48 h; conditions: Melanoma
Experimental: as §1, §2

[23] = test system: SW-620; test: NCI 60 cell line screen, sulforhodamine B, 48 h; conditions: SW-620, Colon Cancer
Experimental: as §1, §2

[24] = test system: SN12C; test: NCI 60 cell line screen, sulforhodamine B, 48 h; conditions: Renal Cancer
Experimental: as §1, §2

[25] = test system: SK-MEL-2; test: NCI 60 cell line screen, sulforhodamine B, 48 h; conditions: SK-MEL-2, Melanoma
Experimental: as §1, §2

[26] = test system: NCI-H236; test: NCI 60 cell line screen, sulforhodamine B, 48 h; conditions: NCI-H236, Non-Small Cell Lung Cancer
Experimental: as §1, §2

[27] = test system: OVCAR-8; test: NCI 60 cell line screen, sulforhodamine B, 48 h; conditions: OVCAR-8, Ovarian Cancer
Experimental: as §1, §2

[28] = test system: DU 145; test: Cell growth inhibition, resazurin, 48 h
[29] = Homo sapiens, 60 cell, read-out: Log10 LC50 (converted)

C[C@@]12OC(=O)[C@]1([C@@H](O)[C@@H]1C=CCCC1)NC(=O)[C@@H]2CCCl [Formula II-16, Salinosporamide A]
Log10 G150 ([1]; BT-459, Breast Cancer): <-8.00 Molar
Log10 TGI ([1]; BT-459, Breast Cancer): <-8.00 Molar
CC50 [1, 29]: 60.3 nM
CC50 ([2]; Homo sapiens, UACC-62, read-out: Log10 LC50 (converted)): 91.2 nM
Log10 G150 ([2]; UACC-62, Melanoma): <-8.00 Molar
Log10 TGI ([2]; UACC-62, Melanoma): <-8.00 Molar
Log10 G150 [3]: <-8.00 Molar
Log10 TGI [3]: >-4.00 Molar
CC50 [4, 29]: > 100000 nM
Log10 G150 ([4]; T86-0, Renal Cancer): <-8.00 Molar
Log10 TGI ([4]; T86-0, Renal Cancer): -5.37 Molar
Log10 G150 ([5]; HCC-2998, Colon Cancer): <-8.00 Molar
Log10 TGI ([5]; HCC-2998, Colon Cancer): <-8.00 Molar
CC50 ([5]; Homo sapiens, HCC 2998, read-out: Log10 LC50 (converted)): 17.8 nM
Log10 G150 [6]: <-8.00 Molar
Log10 TGI [6]: -5.48 Molar
CC50 ([7]; MDA-MB-435, read-out: LC50): < 10 nM
CC50 ([7]; MDA-MB-435, read-out: Log10 LC50 (converted)): < 10 nM
Log10 G150 ([7]; MDA-MB-435, Breast Cancer): <-8.00 Molar
Log10 TGI ([7]; MDA-MB-435, Breast Cancer): <-8.00 Molar
Log10 G150 [8]: <-8.00 Molar
Log10 TGI [8]: -7.28 Molar
CC50 ([9]; Homo sapiens, MOLT-4, read-out: Log10 LC50 (converted)): > 100000 nM
Log10 G150 ([9]; MOLT-4, Leukemia): <-8.00 Molar
Log10 TGI ([9]; MOLT-4, Leukemia): <-8.00 Molar
Log10 G150 [10]: <-8.00 Molar
Log10 TGI [10]: <-8.00 Molar
Log10 G150 [11]: <-8.00 Molar
Log10 TGI [11]: -6.00 Molar
Log10 G150 ([12]; HT29, Colon Cancer): <-8.00 Molar
Log10 TGI ([12]; HT29, Colon Cancer): -7.37 Molar
CC50 ([12]; Homo sapiens, HT-29, read-out: Log10 LC50 (converted)): 38000 nM
Log10 G150 [13]: <-8.00 Molar
Log10 TGI [13]: -7.13 Molar
Log10 G150 [14]: <-8.00 Molar
Log10 TGI [14]: -4.70 Molar
Log10 G150 [15]: <-8.00 Molar
Log10 TGI [15]: <-8.00 Molar
Log10 G150 [16]: <-8.00 Molar
Log10 TGI [16]: <-8.00 Molar
Log10 G150 [17]: <-8.00 Molar
Log10 TGI [17]: <-8.00 Molar
Log10 G150 [18]: <-8.00 Molar
Log10 TGI [18]: -6.92 Molar
CC50 ([19]; Homo sapiens, T47D, read-out: Log10 LC50 (converted)): > 100000 nM
Log10 G150 ([19]; T-47D, Breast Cancer): <-8.00 Molar
Log10 TGI ([19]; T-47D, Breast Cancer): >-4.00 Molar
Log10 G150 [20]: <-8.00 Molar
Log10 TGI [20]: <-8.00 Molar
Log10 G150 [21]: <-8.00 Molar
Log10 TGI [21]: <-8.00 Molar
Log10 G150 [22]: <-8.00 Molar
Log10 TGI [22]: -7.87 Molar
Log10 G150 [23]: <-8.00 Molar
Log10 TGI [23]: >-4.00 Molar
Log10 G150 [24]: <-8.00 Molar
Log10 TGI [24]: <-8.00 Molar
Log10 G150 [25]: <-8.00 Molar
Log10 TGI [25]: <-8.00 Molar
Log10 G150 [26]: <-8.00 Molar
Log10 TGI [26]: <-8.00 Molar
Log10 G150 [27]: <-8.00 Molar
Log10 TGI [27]: -7.70 Molar
% cytotoxicity ([28]; DU 145): 75 ± 4%
EC50 ([28]; Homo sapiens, DU 145, 48 h drug exposure): 37 ± 10 nM
